Reference: US5656591A, “Antimicrobial agents and method for treating products therewith” (Morinaga Milk Industry Co., Ltd., priority 1992, dated 1997)

Columns and labels:
[1] = test system: Staphylococcus aureus (JCM-2151); test: Viability assay (survival rate) in cow's milk medium; assay type: cell-based; design: key to survival rate: % of control colony count 1 (control colony count 2 at peptide 0); details: for antimicrobial activity of the compound added without antimicrobial peptide or lactoferrin hydrolysate (in words): compound alone; for effect of the coexisting compound on the antimicrobial activity of the lactoferrin hydrolysate (in words): with lactoferrin hydrolysate 1
Experimental: The colonies grown on the culture medium were scraped by a platinum loop and cultivated in 1% peptone (by Difco Company) culture medium for several hours at 37° C., and the resultant microbial culture at logarithmic phase was used as the preculture in a serial concentration of 3×10^8 /ml.
A quantity of the resultant solutions of the samples were selectively mixed with a quantity of the basal medium, thereby test media for the respective tests were prepared in the combinations and eventual concentrations as specified in the respective tests.
Utilizing the samples (5), (7), (8), (9), (10), (14), (15), (17), (18) and (19), test media were prepared in the same manner as in the preparation of the test media containing sample (3) and the like, except that the aqueous solution (in the cases of samples (5) and (7), aqueous suspensions) were not dealt with sterilization filters.
To 2 ml aliquots of test media prepared in (3-1) (supra), […] aliquots of the preculture of Staphylococcus aureus prepared in (1) (2. Method, supra) were added, then incubated at 37° C. for 1 hour, 200 μl aliquots of the resultant cultures were taken out and diluted with 1% peptone solution in a series of 10^n respectively, 110 μl aliquots of the resultant dilution series were spread onto plates of standard agar culture medium, and after incubation at 37° C. for 24 hours the number of colonies grown on the plates were counted (Test. Colony Count).
Control coloney counts 1 were determined in the same manner as in the determination of the test coloney counts, except that […] aliquots of the preculture of Staphylococcus aureus prepared in (1) (2. Method, supra) were added to 2 ml aliquots of the respective control media 1 prepared in (3-2) (supra). Furthermore, control coloney counts 2 were determined in the same manner as in the determination of the test coloney counts, except that […] aliquots of the preculture of Staphylococcus aureus prepared in (1) (supra) were added to 2 ml aliquots of the respective control media 1 prepared in (3-2) (supra).
Survival rate 1=(Test Colony Count/Control Colony Count 1)×100
Survival rate 2=(Control Colony Count 2/Control Colony Count 1)×100
(Note: In the tables shown hereinafter, vulues of survival rate 2 are indicated in the row where the concentration of antimicrobial peptide or lactoferrin hydrolysate is 0.)

[2] = test system: methicillin-resistant Staphylococcus aureus (wild type); test: Viability assay in Mueller-Hington Broth on antibiotics-resistant microorganism; assay type: cell-based
Experimental: Precultures of test microorganisms to be used in the tests described hereunder were prepared in such a manner that: from the frozen preservation of dispersions of test microorganisms, a loop of the respective strains of the microorganisms were taken out and spread onto TRI PETIT CASE SOYA AGAR MEDIA (by BBL Company), and incubated at 37° C. for 16 hours; the colonies grown on the culture media were scraped by a platinum loop and cultivated in 2.1% Mueller-Hington Broth (by Difco Company) respectively for several hours at 37° C. The resultant microbial cultures at logarithmic phase in 3×10^8 /ml of microbial concentration were used as the precultures.
The test media to be used in the respective tests were prepared in such a manner that: aqueous solutions in a predetermined concentration of the lactoferrin hydrolysates or the lactoferrin-derived antimicrobial peptides of (1) and (2) in Preparation of Samples (supra), as well as the samples of antibiotics of (3) (supra) were respectively sterilized with filters (by Advantec Company); then a quantity of the resultant solutions of respective samples were selectively added to a quantity of basal medium (Mueller-Hington Broth) prepared in the eventual concentration of 2.1%, thereby combinations of the samples and their concentrations in the respective test media were adjusted as specified in the respective tests. […]

[3] = with antimicrobial peptide Seq. ID No. 26
[4] = with antimicrobial peptide Seq. ID No. 27

Molecule	antimicrobial activity of the compound added without antimicrobial peptide or lactoferrin hydrolysate (in words) [1]	effect of the coexisting compound on the antimicrobial activity of the antimicrobial peptide (in words) [1, 3]	effect of the coexisting compound on the antimicrobial activity of the lactoferrin hydrolysate (in words) [1]	also measured
OCC(O)CO [glycerol, Glycerol]	no antimicrobial activity was observed	augments the antimicrobial activity of the peptide	–	–
O=C1O[C@H]([C@@H](O)CO)C(O)=C1O [ascorbic acid, Ascorbic Acid]	no antimicrobial activity was observed	–	augments the antimicrobial activity of the lactoferrin hydrolysate 1	effect of the coexisting compound on the antimicrobial activity of the antimicrobial peptide (in words) [1, 4]: augments the antimicrobial activity of the peptide
CCCCCCCCCCCCCCCCCC(=O)OCC(O)CO (racemic) [1-monostearoyl-rac-glycerol]	no antimicrobial activity was observed	augments the antimicrobial activity of the antimicrobial peptide	–	survival rate ([1]; Test 19: peptide 0, 1-monostearoyl-rac-glycerol 0.5 mg/ml): 116%; survival rate ([1]; Test 19: peptide 0, 1-monostearoyl-rac-glycerol 1 mg/ml): 133%; survival rate ([1]; Test 19: peptide 0, 1-monostearoyl-rac-glycerol 2 mg/ml): 98%
O=C([O-])CN(CCN(CC(=O)[O-])CC(=O)O)CC(=O)O.[Na+].[Na+] [EDTA.Na2, EDTA·Na2]	no antimicrobial activity was observed	–	augments the antimicrobial activity of the lactoferrin hydrolysate	survival rate ([1]; Test 9: lactoferrin hydrolysate 0, EDTA.Na2 0.1 mg/ml): 122; survival rate ([1]; Test 9: lactoferrin hydrolysate 0, EDTA.Na2 1 mg/ml): 115; survival rate ([1]; Test 9: lactoferrin hydrolysate 0, EDTA.Na2 5 mg/ml): 101
OC[C@H]1O[C@@H]2O[C@H]3[C@H](O)[C@@H](O)[C@@H](O[C@H]4[C@H](O)[C@@H](O)[C@@H](O[C@H]5[C@H](O)[C@@H](O)[C@@H](O[C@H]6[C@H](O)[C@@H](O)[C@@H](O[C@H]7[C@H](O)[C@@H](O)[C@@H](O[C@H]8[C@H](O)[C@@H](O)[C@@H](O[C@H]1[C@H](O)[C@H]2O)O[C@@H]8CO)O[C@@H]7CO)O[C@@H]6CO)O[C@@H]5CO)O[C@@H]4CO)O[C@@H]3CO [β-cyclodextrin, β-Cyclodextrin]	no antimicrobial activity was observed	augments the antimicrobial activity of the peptide	–	survival rate ([1]; Test 4: peptide 0, β-cyclodextrin 0.1 mg/ml): 100; survival rate ([1]; Test 4: peptide 0, β-cyclodextrin 1 mg/ml): 109; survival rate ([1]; Test 4: peptide 0, β-cyclodextrin 2.5 mg/ml): 88
CCCCCCCCCCCCCC(=O)OCC(O)CO (racemic) [1-monomyristoyl-rac-glycerol, 1-monomyristoyl-rac-Glycerol]	the antimicrobial activity is low	augmented the antimicrobial activity of the peptide	–	–
Polyphosphoric Acid	no antimicrobial activity was observed	–	augments the antimicrobial activity of the lactoferrin hydrolysate 1	survival rate ([1]; Test 12: lactoferrin hydrolysate 0, polyphosphoric acid 0.1 mg/ml): 140; survival rate ([1]; Test 12: lactoferrin hydrolysate 0, polyphosphoric acid 1 mg/ml): 124; survival rate ([1]; Test 12: lactoferrin hydrolysate 0, polyphosphoric acid 5 mg/ml): 111
tocopherol	no antimicrobial activity was observed	augments the antimicrobial activity of the peptide	–	survival rate ([1]; Test 3: peptide 0, tocopherol 0.1 mg/ml): 101; survival rate ([1]; Test 3: peptide 0, tocopherol 0.5 mg/ml): 113; survival rate ([1]; Test 3: peptide 0, tocopherol 1 mg/ml): 112
N[C@@H](CS)C(=O)O [L-cysteine, L-Cysteine]	antimicrobial activity was low	–	–	effect of the coexisting compound on the antimicrobial activity of the antimicrobial peptide (in words) [1, 4]: augments the antimicrobial activity of the peptide
CCO [ethyl alcohol, Ethyl Alcohol]	no antimicrobial activity was observed	potentiates the antimicrobial activity of the peptide	–	–
C[C@H](CCC(=O)O)[C@H]1CC[C@H]2[C@@H]3[C@H](O)C[C@@H]4C[C@H](O)CC[C@]4(C)[C@H]3C[C@H](O)[C@]12C [cholic acid, Cholic Acid]	no antimicrobial activity was observed	further augments the antimicrobiaI activity of the peptide	augments the antimicrobial activity of the lactoferrin hydrolysate 1	survival rate ([1]; Test 22: peptide 0, 1-monolauroyl-rac-glycerol 0, cholic acid 1 mg/ml): 92%
CC(O)CO (centres unmarked) [propylene glycol, Propylene Glycol]	no antimicrobial activity was observed	augmented the antimicrobial activity of the peptide	–	–
CN(C)c1ccc(O)c2c1C[C@H]1C[C@H]3[C@H](N(C)C)C(O)=C(C(N)=O)C(=O)[C@@]3(O)C(O)=C1C2=O [minomycin]	–	–	–	survival rate ([2]; Test 24: peptide 0, minomycin 10 μg/ml): 32%; survival rate ([2]; Test 24: peptide 0, minomycin 50 μg/ml): 5.2%
CCCCCCCC(=O)OCC(O)CO (racemic) [monocapryloyl-glycerol, 1-Monocapryloyl-rac-Glycerol]	no antimicrobial activity was observed	augments the antimicrobial activity of the peptide	–	–
O=C(O)CC(O)(CC(=O)O)C(=O)O [citric acid, Citric Acid]	–	–	augments the antimicrobial activity of the lactoferrin hydrolysate 1	–
